Read-outs that look alike come from different tables or passages of the source.
Assays:
Assay in all cases: SelectScreen Kinase Profiling, single point inhibition and IC50 for off-target kinases
Type in all cases: biochemical
off-target kinases [1] = biological target: off-target kinases (Homo sapiens, UniProt Q15418); details: RPS6KA1 (RSK1), ZLYTE, ATP Km app
off-target kinases [2] = biological target: off-target kinases (Homo sapiens, UniProt P00533, T790M); details: EGFR (ErbB1) T790M, mutant y, ZLYTE, ATP Km app
Chain of off-target kinases (Homo sapiens, UniProt P00533, T790M) (P00533 25-1210 T790M): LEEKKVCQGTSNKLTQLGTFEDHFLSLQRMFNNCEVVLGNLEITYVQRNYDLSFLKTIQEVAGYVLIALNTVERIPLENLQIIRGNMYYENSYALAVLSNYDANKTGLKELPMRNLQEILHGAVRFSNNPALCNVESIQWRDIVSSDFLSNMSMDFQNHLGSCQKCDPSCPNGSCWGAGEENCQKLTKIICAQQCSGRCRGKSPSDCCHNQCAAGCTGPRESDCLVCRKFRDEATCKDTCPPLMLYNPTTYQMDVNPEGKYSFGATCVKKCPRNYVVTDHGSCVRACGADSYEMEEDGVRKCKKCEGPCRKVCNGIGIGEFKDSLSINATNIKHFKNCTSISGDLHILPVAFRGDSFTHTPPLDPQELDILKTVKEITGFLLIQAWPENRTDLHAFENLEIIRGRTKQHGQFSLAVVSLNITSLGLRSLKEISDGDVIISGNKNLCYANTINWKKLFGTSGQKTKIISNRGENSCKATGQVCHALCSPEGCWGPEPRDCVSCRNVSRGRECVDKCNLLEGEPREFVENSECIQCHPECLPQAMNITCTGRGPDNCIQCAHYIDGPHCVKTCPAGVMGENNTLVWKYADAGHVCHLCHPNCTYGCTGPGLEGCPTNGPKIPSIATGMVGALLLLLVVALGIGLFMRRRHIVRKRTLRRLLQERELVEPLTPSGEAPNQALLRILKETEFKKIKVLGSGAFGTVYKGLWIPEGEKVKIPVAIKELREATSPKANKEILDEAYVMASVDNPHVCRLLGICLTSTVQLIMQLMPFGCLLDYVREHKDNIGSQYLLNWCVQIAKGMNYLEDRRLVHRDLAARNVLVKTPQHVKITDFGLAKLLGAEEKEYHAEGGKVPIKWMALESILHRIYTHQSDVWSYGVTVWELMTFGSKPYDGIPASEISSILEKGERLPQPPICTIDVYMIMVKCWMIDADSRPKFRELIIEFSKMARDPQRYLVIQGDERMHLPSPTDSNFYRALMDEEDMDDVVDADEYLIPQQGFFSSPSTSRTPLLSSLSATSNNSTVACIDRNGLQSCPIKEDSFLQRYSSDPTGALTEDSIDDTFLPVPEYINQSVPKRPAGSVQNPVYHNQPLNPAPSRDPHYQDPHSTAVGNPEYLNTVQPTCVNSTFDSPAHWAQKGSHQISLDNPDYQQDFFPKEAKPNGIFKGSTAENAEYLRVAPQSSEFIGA

off-target kinases [3] = biological target: off-target kinases (Homo sapiens, UniProt P28482); details: MAPK1 (ERK2), ZLYTE, ATP Km app
Chain of off-target kinases (Homo sapiens, UniProt P28482) (P28482 whole entry): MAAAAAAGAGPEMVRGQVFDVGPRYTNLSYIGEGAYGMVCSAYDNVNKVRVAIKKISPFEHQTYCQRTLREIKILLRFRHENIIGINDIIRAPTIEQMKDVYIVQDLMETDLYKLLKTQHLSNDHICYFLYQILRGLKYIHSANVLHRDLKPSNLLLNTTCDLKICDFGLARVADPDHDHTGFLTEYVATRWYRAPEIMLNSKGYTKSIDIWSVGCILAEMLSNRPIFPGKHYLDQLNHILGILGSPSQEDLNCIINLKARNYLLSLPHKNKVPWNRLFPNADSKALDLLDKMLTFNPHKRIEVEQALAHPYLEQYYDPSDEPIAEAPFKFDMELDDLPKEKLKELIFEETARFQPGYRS

off-target kinases [4] = biological target: off-target kinases (Homo sapiens, UniProt P07949, V804M); details: RET V804M, mutant y, LanthaScreen Binding
Chain of off-target kinases (Homo sapiens, UniProt P07949, V804M) (P07949 29-1114 V804M): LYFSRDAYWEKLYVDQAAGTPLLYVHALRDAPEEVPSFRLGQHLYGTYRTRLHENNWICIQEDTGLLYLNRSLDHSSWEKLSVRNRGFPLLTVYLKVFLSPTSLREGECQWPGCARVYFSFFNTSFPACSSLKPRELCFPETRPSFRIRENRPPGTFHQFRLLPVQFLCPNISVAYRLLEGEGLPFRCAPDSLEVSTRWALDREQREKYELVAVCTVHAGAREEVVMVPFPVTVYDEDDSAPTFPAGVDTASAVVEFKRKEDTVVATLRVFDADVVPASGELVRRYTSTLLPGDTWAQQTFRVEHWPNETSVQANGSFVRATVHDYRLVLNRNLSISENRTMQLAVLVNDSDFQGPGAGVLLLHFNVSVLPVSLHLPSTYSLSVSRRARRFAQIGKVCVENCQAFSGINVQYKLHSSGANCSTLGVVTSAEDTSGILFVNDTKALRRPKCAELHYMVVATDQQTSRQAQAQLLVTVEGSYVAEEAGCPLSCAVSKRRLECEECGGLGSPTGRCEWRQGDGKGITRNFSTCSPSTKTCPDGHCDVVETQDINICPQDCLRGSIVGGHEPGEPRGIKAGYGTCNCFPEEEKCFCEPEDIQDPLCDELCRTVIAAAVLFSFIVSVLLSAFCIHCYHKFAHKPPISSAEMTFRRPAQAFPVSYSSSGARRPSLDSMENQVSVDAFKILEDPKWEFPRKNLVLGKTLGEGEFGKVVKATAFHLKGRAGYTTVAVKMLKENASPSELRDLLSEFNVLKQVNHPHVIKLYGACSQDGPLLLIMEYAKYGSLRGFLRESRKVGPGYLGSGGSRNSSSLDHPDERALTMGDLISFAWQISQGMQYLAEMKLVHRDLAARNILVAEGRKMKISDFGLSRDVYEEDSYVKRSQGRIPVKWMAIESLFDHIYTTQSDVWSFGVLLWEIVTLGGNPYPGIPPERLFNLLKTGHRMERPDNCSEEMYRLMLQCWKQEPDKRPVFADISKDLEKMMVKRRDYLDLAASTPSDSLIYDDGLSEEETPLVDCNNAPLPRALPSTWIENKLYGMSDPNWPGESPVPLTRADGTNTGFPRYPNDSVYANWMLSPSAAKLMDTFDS

off-target kinases [5] = biological target: off-target kinases (Homo sapiens, UniProt P24723); details: PRKCH (PKC eta), ZLYTE, ATP Km app
Chain of off-target kinases (Homo sapiens, UniProt P24723) (P24723 whole entry): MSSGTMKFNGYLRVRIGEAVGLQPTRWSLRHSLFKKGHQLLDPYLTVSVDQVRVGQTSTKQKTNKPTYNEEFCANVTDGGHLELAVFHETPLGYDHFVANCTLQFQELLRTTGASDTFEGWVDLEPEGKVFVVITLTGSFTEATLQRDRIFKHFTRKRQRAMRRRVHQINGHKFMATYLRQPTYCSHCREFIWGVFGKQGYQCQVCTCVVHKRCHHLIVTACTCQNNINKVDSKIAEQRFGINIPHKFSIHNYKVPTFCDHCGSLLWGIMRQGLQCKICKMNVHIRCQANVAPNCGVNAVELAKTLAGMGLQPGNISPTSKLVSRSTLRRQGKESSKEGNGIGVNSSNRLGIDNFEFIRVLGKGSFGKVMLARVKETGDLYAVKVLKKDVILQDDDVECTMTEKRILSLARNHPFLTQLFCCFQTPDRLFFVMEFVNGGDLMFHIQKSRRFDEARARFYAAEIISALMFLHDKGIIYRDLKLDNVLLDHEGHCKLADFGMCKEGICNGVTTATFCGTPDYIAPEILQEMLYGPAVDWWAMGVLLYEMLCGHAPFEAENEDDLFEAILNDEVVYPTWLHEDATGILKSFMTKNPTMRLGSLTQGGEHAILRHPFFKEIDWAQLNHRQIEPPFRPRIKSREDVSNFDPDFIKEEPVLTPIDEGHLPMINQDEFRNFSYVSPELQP

off-target kinases [6] = biological target: T1, off-target kinases (Homo sapiens, UniProt O94768); details: STK17B (DRAK2), LanthaScreen Binding
T1 sequence (O94768 1-372): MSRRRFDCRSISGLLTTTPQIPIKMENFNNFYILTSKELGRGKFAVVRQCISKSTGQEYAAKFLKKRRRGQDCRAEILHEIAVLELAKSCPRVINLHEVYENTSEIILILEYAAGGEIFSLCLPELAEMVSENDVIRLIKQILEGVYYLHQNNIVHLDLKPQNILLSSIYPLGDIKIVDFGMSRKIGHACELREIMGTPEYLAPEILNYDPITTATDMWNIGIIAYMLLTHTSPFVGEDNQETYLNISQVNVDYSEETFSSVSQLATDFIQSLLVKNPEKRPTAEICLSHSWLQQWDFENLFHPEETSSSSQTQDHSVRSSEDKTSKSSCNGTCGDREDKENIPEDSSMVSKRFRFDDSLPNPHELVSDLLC

off-target kinases [7] = biological target: T2, off-target kinases (Homo sapiens, UniProt Q05513); details: PRKCZ (PKC zeta); Cmpd1 1000 μM; ATP Km app; ZLYTE
T2 sequence (Q05513 1-592): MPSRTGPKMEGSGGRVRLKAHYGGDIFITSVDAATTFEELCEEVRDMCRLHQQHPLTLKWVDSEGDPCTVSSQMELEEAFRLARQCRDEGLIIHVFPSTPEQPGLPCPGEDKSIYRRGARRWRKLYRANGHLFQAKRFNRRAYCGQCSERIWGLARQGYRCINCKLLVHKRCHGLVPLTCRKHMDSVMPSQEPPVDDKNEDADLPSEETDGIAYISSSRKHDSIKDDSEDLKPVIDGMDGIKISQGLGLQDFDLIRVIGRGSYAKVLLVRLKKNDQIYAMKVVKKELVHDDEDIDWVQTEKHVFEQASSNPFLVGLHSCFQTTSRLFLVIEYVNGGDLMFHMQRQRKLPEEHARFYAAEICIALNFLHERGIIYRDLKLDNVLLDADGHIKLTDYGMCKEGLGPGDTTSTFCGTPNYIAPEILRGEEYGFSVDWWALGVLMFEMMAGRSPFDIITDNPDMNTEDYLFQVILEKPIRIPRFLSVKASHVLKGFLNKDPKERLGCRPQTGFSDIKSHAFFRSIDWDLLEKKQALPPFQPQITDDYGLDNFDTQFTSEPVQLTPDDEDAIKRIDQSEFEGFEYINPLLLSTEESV

off-target kinases [8] = biological target: off-target kinases (Homo sapiens, UniProt P12931); details: SRC, ATP Km app, ZLYTE
Chain of off-target kinases (Homo sapiens, UniProt P12931) (P12931 whole entry): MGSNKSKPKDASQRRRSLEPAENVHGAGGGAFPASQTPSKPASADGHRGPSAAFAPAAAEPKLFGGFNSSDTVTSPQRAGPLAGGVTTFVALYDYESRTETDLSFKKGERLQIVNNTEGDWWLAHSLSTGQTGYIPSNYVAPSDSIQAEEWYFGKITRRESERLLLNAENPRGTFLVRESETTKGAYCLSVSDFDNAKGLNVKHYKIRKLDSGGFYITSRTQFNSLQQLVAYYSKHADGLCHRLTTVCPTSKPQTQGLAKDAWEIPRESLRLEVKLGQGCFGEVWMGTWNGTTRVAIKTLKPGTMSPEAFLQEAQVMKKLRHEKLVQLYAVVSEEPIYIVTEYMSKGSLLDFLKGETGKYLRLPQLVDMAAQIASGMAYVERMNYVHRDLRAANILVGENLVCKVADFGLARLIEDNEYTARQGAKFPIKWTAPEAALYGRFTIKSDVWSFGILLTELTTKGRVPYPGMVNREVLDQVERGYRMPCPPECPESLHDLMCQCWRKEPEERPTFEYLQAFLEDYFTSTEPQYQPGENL

Chain of off-target kinases (Homo sapiens, UniProt Q15418) (Q15418 whole entry): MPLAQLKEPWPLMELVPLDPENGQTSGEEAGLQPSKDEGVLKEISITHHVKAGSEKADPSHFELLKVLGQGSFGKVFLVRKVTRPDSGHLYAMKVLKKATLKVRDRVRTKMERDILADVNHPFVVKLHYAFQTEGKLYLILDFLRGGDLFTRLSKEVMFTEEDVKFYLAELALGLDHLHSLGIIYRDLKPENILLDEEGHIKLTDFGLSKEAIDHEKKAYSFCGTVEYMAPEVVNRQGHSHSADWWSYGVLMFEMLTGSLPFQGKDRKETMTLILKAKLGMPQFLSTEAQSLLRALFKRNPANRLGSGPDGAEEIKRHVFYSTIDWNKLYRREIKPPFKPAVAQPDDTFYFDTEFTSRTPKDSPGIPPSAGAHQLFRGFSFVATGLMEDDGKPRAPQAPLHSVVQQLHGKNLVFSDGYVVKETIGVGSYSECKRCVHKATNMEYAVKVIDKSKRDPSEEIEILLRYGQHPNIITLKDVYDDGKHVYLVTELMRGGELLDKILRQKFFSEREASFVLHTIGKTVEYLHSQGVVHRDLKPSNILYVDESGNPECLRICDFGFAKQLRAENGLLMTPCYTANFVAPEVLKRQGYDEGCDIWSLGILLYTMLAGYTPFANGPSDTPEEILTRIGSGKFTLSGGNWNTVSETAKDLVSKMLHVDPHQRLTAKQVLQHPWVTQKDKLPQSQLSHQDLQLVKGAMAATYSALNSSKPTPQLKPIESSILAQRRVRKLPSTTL

## N#Cc1cc(-c2ncnc(Nc3ccc(N4CCN(C5COC5)CC4)cc3)n2)ccc1OC1CCOCC1 [Compound 1, 5-(4-((4-(4-(oxetan-3-yl)piperazin-1-yl)phenyl)amino)-1,3,5-triazin-2-yl)-2-((tetrahydro-2H-pyran-4-yl)oxy)benzonitrile]
off-target kinases [1]; read-out: % Inhibition 1
  inhibition: 15%
off-target kinases [1]; read-out: % Inhibition 2
  inhibition: 11%
off-target kinases [1]; read-out: % Inhibition Avg
  inhibition: 13%
off-target kinases [2]; read-out: % Inhibition 1
  inhibition: 25%
off-target kinases [2]; read-out: % Inhibition 2
  inhibition: 25%
off-target kinases [2]; read-out: % Inhibition Avg
  inhibition: 25%
off-target kinases [3]; read-out: % Inhibition 1
  inhibition: 6%
off-target kinases [3]; read-out: % Inhibition 2
  inhibition: 6%
off-target kinases [3]; read-out: % Inhibition Avg
  inhibition: 6%
off-target kinases [4]; read-out: % Inhibition 1
  inhibition: 35%
off-target kinases [4]; read-out: % Inhibition 2
  inhibition: 31%
off-target kinases [4]; read-out: % Inhibition Avg
  inhibition: 33%
off-target kinases [5]; read-out: % Inhibition 1
  inhibition: 12%
off-target kinases [5]; read-out: % Inhibition 2
  inhibition: 8%
off-target kinases [5]; read-out: % Inhibition Avg
  inhibition: 10%
off-target kinases [6]; read-out: % Inhibition 1
  inhibition: 94%
off-target kinases [6]; read-out: % Inhibition 2
  inhibition: 84%
off-target kinases [6]; read-out: % Inhibition Avg
  inhibition: 89%
off-target kinases [7]
  % Inhibition 1: −18%
  % Inhibition 2: −16%
  % Inhibition Avg: −17%
off-target kinases [8]; read-out: % Inhibition 1
  inhibition: 45%
off-target kinases [8]; read-out: % Inhibition 2
  inhibition: 44%
off-target kinases [8]; read-out: % Inhibition Avg
  inhibition: 45%
